From ChEMBL document CHEMBL1201862, “PubChem BioAssay data set” (2004)
Activity calls are given as the source filed them.

How the values were obtained:
[1] = target: T1, Scavenger receptor class B member 1 (Mus musculus, UniProt Q61009); assay: mouse SR-BI DiI-HDL uptake blockers – ldlA[mSR-BI] cells, fluorescence, cherry pick, dose response (AID 493194); assay type: functional, cell-based;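 further: cellular uptake of fluorescent DiI-labeled HDL measured as cell fluorescence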
T1 sequence (Q61009 whole entry): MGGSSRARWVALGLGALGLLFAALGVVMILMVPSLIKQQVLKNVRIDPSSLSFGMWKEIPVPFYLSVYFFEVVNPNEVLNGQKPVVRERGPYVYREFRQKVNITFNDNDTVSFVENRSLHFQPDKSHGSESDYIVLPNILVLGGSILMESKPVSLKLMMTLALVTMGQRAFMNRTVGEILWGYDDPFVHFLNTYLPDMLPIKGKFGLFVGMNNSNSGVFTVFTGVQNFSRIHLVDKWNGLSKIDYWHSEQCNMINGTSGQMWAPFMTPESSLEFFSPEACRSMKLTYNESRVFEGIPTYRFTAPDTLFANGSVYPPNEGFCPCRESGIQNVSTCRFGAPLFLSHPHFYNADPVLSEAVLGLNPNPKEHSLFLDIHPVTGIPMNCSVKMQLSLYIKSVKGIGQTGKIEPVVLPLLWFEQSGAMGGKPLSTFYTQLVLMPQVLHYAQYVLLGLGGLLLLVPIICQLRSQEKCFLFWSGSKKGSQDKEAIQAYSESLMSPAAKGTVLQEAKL

[2] = target: T2, Epstein-Barr nuclear antigen 1 (Epstein-Barr virus (strain B95-8) (HHV-4) (Human herpesvirus 4), UniProt P03211); assay: inhibition of EBV nuclear antigen 1 DNA binding – biochemical, fluorescence polarization, 1536-well, dose response (AID 2381); parameters: species or system human gammaherpesvirus 4;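 further: fluorescence polarization of a Cy5 DNA probe bound by EBNA-1 protein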
T2 sequence (P03211 whole entry): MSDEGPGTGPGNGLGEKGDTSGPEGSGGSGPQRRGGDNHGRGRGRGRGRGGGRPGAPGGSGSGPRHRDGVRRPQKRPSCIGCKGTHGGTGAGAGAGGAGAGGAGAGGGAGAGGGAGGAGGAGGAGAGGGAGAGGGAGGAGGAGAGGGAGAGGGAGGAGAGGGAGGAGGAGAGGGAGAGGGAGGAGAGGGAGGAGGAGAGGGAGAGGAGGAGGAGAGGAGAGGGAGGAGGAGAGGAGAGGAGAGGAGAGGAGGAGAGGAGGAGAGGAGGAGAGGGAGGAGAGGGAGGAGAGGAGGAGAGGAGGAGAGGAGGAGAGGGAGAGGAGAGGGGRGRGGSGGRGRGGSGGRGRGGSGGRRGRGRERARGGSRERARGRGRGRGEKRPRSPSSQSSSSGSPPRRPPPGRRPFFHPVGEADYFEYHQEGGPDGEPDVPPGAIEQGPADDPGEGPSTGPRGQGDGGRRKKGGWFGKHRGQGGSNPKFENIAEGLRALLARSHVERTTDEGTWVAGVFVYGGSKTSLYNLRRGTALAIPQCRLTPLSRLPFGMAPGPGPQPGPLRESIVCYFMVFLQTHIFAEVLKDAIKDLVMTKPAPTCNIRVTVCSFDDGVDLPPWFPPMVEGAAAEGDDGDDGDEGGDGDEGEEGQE

[3] = target: T3, Lytic switch protein BZLF1 (Epstein-Barr virus (strain B95-8) (HHV-4) (Human herpesvirus 4), UniProt P03206); assay: inhibition of BZLF1 ZTA DNA binding – biochemical, fluorescence polarization, Epstein-Barr virus, 1536-well, counter-screen for EBNA-1 inhibitor project, dose response (AID 2377); parameters: species or system human gammaherpesvirus 4;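 further: fluorescence polarization of Cy5-labelled ZRE DNA probe bound by purified Zta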
T3 sequence (P03206 whole entry): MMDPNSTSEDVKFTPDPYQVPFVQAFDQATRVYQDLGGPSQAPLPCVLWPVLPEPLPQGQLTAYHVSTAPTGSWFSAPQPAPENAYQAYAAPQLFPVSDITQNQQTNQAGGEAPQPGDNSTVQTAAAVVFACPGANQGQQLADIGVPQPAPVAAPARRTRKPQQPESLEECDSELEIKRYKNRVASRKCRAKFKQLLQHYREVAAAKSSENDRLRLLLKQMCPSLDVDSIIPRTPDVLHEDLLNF

Mucolipin-3 = target: T4, Mucolipin-3 (Homo sapiens, UniProt Q8TDD5); assay: Dose response cell-based high-throughput screening assay for agonists of the transient receptor potential channel ML3 (TRPML3). [Related pubchem assays: 1526, 1424, 1448 ]; assay type: functional
T4 sequence (Q8TDD5 whole entry): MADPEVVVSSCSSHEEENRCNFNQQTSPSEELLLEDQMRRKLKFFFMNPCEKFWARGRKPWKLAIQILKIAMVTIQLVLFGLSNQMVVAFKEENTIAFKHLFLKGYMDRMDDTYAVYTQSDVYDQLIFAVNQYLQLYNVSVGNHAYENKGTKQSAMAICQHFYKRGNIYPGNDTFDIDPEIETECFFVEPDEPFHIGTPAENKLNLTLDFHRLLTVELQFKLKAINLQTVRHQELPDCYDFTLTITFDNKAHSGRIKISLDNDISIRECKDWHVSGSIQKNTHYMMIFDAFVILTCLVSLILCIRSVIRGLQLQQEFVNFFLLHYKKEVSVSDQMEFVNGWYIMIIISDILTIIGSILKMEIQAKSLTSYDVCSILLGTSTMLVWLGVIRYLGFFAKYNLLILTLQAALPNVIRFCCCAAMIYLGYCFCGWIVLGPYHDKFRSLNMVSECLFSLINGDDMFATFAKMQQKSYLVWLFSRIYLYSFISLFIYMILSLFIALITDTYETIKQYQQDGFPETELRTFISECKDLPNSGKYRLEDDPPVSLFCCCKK

[4] = NIH3T3 cell viability loss – ATP luminescence, mouse fibroblasts, counter-screen, dose response (AID 2010); assay type: functional, cell-based;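 further: cells exposed to compound for about 90 hours before reading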
[5] = Trypanosoma cruzi growth suppression in host cells – NIH3T3 host cells, beta-gal luminescence, confirmation (AID 2044); assay type: functional, cell-based;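 further: intracellular parasites grown in NIH/3T3 mouse fibroblasts as host cells; luminescent beta-galactosidase reporter signal from transgenic T. cruzi replicating inside host cells; inhibitors lower the luminescence signal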
Ion channel NompC = Ion channel NompC (Danio rerio, UniProt Q7T1G6); assay: Fluorescence counterscreen assay for TRPML3 agonists: dose response cell-based high-throughput screening assay to identify agonists of the transient receptor potential channel N1 (TRPN1). [Related pubchem assays: 1526, 1424, 1448 ]; assay type: functional
[6] = target: Protein-tyrosine kinase 2-beta (Homo sapiens, UniProt Q14289);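 further: potency of inhibitors of PYK2 kinase phosphorylation of poly-GT substrate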
Bcl-2-related protein A1 [7] = target: T5, Bcl-2-related protein A1 (Mus musculus, UniProt Q07440); assay: small-molecule antagonists of Bfl-1/BH3 interaction – biochemical, TR-FRET, mouse Bfl-1, confirmation (AID 621);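 further: TR-FRET binding of GST-Bfl-1 to FITC-labelled Bid peptide via terbium antibody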
T5 sequence (Q07440 whole entry): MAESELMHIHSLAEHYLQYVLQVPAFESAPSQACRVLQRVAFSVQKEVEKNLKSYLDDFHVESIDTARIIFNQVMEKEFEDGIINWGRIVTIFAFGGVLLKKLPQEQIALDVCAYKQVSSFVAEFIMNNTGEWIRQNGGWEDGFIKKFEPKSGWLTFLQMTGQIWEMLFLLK

Bcl-2-related protein A1 [8] = target: T5, Bcl-2-related protein A1; assay: Bfl-1 binding inhibitors, SAR follow-up, biochemical, fluorescence polarization (AID 1070)
Genome polyprotein = Genome polyprotein (dengue virus type 2, UniProt P29990); assay: flavivirus cap methylation enzyme inhibition – biochemical, confirmation dose response, primary screen (AID 588689); assay type: functional
[9] = target: Glyceraldehyde-3-phosphate dehydrogenase (Homo sapiens, UniProt P04406)
[10] = target: T6, Replicative DNA helicase DnaB (Mycobacterium tuberculosis, UniProt P9WMR3); assay: DnaB intein splicing inhibitors, dose response, biochemical, cell-free fluorescence (AID 449749); assay type: functional
T6 sequence (P9WMR3 whole entry): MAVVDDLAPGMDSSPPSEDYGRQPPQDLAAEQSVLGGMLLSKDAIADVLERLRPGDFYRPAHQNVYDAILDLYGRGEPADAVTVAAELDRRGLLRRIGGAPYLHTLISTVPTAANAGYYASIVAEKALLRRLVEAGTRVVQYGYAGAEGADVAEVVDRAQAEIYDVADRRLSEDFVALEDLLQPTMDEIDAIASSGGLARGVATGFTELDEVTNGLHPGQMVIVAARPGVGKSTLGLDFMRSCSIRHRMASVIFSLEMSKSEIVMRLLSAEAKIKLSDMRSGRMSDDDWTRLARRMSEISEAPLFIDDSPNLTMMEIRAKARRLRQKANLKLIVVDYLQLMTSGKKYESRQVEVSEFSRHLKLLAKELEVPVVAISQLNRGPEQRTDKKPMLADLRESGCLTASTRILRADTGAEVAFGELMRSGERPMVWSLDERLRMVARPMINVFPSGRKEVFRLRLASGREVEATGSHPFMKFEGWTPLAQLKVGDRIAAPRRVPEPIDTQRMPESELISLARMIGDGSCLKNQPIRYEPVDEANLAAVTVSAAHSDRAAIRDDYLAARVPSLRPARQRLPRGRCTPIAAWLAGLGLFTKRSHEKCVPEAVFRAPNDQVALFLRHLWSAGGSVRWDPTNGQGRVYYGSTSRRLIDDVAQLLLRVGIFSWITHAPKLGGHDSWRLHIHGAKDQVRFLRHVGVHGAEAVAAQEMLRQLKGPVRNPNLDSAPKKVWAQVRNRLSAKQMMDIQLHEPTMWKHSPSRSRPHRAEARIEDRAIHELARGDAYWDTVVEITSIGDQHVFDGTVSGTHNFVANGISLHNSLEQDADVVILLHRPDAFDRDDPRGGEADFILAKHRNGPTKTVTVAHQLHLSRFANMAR

Protein RecA = target: T7, Protein RecA (Mycobacterium tuberculosis, UniProt P9WHJ3); assay: Fluorescence Cell-Free Homogeneous Dose Retest to Identify Inhibitors of RecA-Intein Splicing Activity. [Related pubchem assays (depositor defined):AID2097, AID2223, AID489010, AID492950]; assay type: functional
T7 sequence (P9WHJ3 whole entry): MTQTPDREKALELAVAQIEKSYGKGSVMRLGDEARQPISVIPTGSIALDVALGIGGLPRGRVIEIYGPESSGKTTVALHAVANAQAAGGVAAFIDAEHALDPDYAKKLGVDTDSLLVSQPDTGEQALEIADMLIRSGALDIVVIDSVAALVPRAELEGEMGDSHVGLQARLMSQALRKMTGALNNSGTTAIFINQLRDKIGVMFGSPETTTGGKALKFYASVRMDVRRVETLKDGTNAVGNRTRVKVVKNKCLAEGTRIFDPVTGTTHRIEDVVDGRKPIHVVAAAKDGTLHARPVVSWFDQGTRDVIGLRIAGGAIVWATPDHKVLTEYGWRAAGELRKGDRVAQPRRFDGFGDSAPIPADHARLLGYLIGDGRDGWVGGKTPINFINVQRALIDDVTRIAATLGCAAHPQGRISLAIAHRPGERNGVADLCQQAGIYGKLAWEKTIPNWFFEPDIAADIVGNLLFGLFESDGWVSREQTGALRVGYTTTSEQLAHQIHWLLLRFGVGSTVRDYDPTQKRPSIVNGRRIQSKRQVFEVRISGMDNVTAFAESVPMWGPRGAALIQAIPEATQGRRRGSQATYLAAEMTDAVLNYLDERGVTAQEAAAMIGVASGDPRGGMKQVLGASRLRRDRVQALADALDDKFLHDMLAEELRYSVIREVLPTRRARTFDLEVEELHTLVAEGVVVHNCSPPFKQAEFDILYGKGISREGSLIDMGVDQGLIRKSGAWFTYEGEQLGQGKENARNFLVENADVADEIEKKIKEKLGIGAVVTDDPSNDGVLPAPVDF

Cytochrome P450 2D6 = Cytochrome P450 2D6 (Homo sapiens, UniProt P10635); assay: qHTS Assay for Inhibitors and Substrates of Cytochrome P450 2D6. [Related pubchem assays: 410 ]; assay type: ADME; settings: read-out: Potency
Cytochrome P450 2C9 = Cytochrome P450 2C9 (Homo sapiens, UniProt P11712); settings: Potency
Cytochrome P450 3A4 = Cytochrome P450 3A4 (Homo sapiens, UniProt P08684); settings: Potency;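 further: confirmatory qHTS run detecting inhibitors and substrates of CYP3A4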
[11] = target: FAD-linked sulfhydryl oxidase ALR (Homo sapiens, UniProt P55789); assay: ALR-catalysed DTT oxidation blockers – biochemical, H2O2 detection, luminescence, cherry-pick, dose response (AID 493248)

COC(=O)c1[nH]c2cc(OC)ccc2c1NC(=O)c1ccc2c(c1)OCO2
AC50 [1]: 17.8 µM (active)

COc1ccc(/C=C2/NC(=O)N(CC(=O)Nc3cccc(C)c3)C2=O)cc1O
IC50 [2]: 9.14 µM (active) | IC50 [3]: > 111 µM (not active)

c1ccc2c(C[n+]3csc4ccccc43)cccc2c1
EC50 (Mucolipin-3): > 29.9 µM (not active) | EC50 [4]: 22.3 µM (active) | EC50 [5]: 0.898 µM (active) | EC50 (Ion channel NompC): > 29.9 µM (not active)

O=c1c(/C=N/O)c(Nc2ccccc2)nc2ccccn12
IC50 [6]: > 69.5 µM (not active)

O=C1C(Cl)=C(N2CCOCC2)C(=O)N1c1ccccc1Cl
IC50 (Bcl-2-related protein A1 [7]): 5.83 µM (active) | IC50 (Bcl-2-related protein A1 [8]): > 100 µM (not active) | IC50 (Genome polyprotein): 23.3 µM (active) | IC50 [9]: > 10 µM (inconclusive) | AC50 [10]: 5.28 µM (active) | EC50 (Protein RecA): 2.09 µM (active)

CCCCCCCCCCCCC/C=C\[C@H](O)[C@H](N)CO
AC50 (Cytochrome P450 2D6): 12.6 µM (inconclusive)

CCOc1ccc(NC(=O)CN2CCN(CC(=O)Nc3cc(OC)cc(OC)c3)CC2)cc1
AC50 [1]: 0.414 µM (active)

O=C(Nc1ccc(-c2nc3ccccc3o2)cc1)c1ccc(N2C(=O)C3C4C=CC(C4)C3C2=O)cc1 (stereo unspecified)
IC50 [2]: 5.35 µM (active) | IC50 [3]: > 111 µM (not active)

O=C(Nc1cccc(-c2nnc(-c3ccccc3)o2)c1)C1CCCCC1
IC50 [2]: 6.03 µM (active) | IC50 [3]: > 111 µM (not active)

O=C1CN(S(=O)(=O)c2ccc(F)cc2)CC(=O)N1CCc1ccccc1
EC50 (Mucolipin-3): 6.15 µM (active) | EC50 (Ion channel NompC): > 29.9 µM (not active)

Cc1cc(C)cc(N(CC(=O)N2CCOCC2)S(=O)(=O)c2ccccc2)c1
EC50 (Mucolipin-3): 3.71 µM (active) | EC50 (Ion channel NompC): > 29.9 µM (not active)

C=CCc1cccc(C2C(C)CCC3C(=O)N4C(CCC(C)C4c4cccc(CC=C)c4)C(=O)N32)c1 (stereo unspecified)
AC50 (Cytochrome P450 2C9): 3.98 µM (inconclusive) | AC50 (Cytochrome P450 3A4): 0.2 µM (inconclusive) | AC50 (Cytochrome P450 2D6): 3.16 µM (inconclusive)

C=C(C)C(O)/C=C/c1cccc(OC)c1 (stereo unspecified)
AC50 (Cytochrome P450 2C9): 7.94 µM (inconclusive) | AC50 (Cytochrome P450 2D6): 7.94 µM (inconclusive)

N#C/C(=N\Nc1c(Cl)cccc1Cl)C(=O)NN
AC50 [11]: 2.37 µM (active) | IC50 [6]: 28.2 µM (not active)
